Results on six substances are retold here after patent publication US9833497B2, “Human originated EGF domain proteins and use of the same” (CHENGDU SOURCEBIO LIMITED-LIABILITY COMPANY, priority 2013, dated 2017).

Common to all, as to format: cell-based
The subject of one experiment is E. coli DH5α. In words: Antibacterial activity: MIC and growth curve against E. coli DH5α in 96-well plate. The conditions noted are these: minimal inhibitory concentration against E. coli DH5α; 96-well plate, 5×10^5 CFU/mL, 37° C., judged after 8 h. In a few lines:
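Log-phase bacteria (OD600 ~0.5) resuspended in LB at 5×10^5 CFU/mL, exposed to recombinant protein at 50, 25, 12.5 μg/mL final in triplicate, 37 °C shaking at 175 rpm. OD600 read every 30 min; MIC is lowest concentration showing no growth.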

The next experiment relates to E. coli BL21. In words: MIC against Gram-negative bacteria: E. coli BL21. Conditions: for MIC: E. coli BL21, 10 h cultivation at 37° C. In a few lines:
(§1)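 MIC, the lowest recombinant protein concentration giving no bacterial growth, found by two-fold serial dilution of human EGF-domain proteins in triplicate. Inoculum 5×10^5 CFU/mL in LB from cultures at McFarland 0.5; plates incubated at 37° C, 175 rpm shaking.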

A further experiment concerns Pseudomonas aeruginosa. The experiment can be described thus: MIC against Gram-negative bacteria: Pseudomonas aeruginosa. Conditions: for MIC: P. aeruginosa, 10 h cultivation at 37° C. In short, it runs like this:
as §1

The subject of another experiment is Klebsiella pneumonia. In words: MIC against Gram-negative bacteria: Klebsiella pneumonia. Conditions: for MIC: K. pneumonia, 10 h cultivation at 37° C. In a few lines:
as §1

A further experiment deals with Enterobacter cloacae. The experiment can be described thus: MIC against Gram-negative bacteria: Enterobacter cloacae. The conditions noted are these: for MIC: E. cloacae, 10 h cultivation at 37° C. In short, it runs like this:
as §1

In a further experiment the test system is Aeromonas hydrophila. The experiment can be described thus: MIC against Gram-negative bacteria: Aeromonas hydrophila. The conditions noted are these: for MIC: A. hydrophila, 10 h cultivation at 37° C. In a few lines:
as §1

For another experiment, the system named is Citrobacter diversus. In words: MIC against Gram-negative bacteria: Citrobacter diversus. Conditions: for MIC: C. diversus, 10 h cultivation at 37° C. In a few lines:
as §1

For the next experiment, the system named is Moraxella catarrhalis. In words: MIC against Gram-negative bacteria: Moraxella catarrhalis. The conditions noted are these: for MIC: M. catarrhalis, 10 h cultivation at 37° C. In short, it runs like this: as §1
Another experiment deals with Proteus mirabilis. In words: MIC against Gram-negative bacteria: Proteus mirabilis. The conditions noted are these: for MIC: P. mirabilis, 10 h cultivation at 37° C. In a few lines:
as §1

The subject of a further experiment is Proteus vulgaris. In words: MIC against Gram-negative bacteria: Proteus vulgaris. Conditions: for MIC: P. vulgaris, 10 h cultivation at 37° C. In a few lines: as §1
For another experiment, the system named is Serratia marcescens. The experiment can be described thus: MIC against Gram-negative bacteria: Serratia marcescens. Conditions: for MIC: S. marcescens, 10 h cultivation at 37° C. In short, it runs like this:
as §1

Setting [1] is: 96-well plate, 5×10^5 CFU/mL, 37° C., 10 h.

As usually defined, the MIC is the lowest concentration that inhibits growth of the organism. High values mean a need for much substance, low ones inhibition by little substance. Substance “PRT531 (CDCNLEGVLPEICDAHGRCLCRPGVEGPRCDTCRSGFYSFPICQA; listed as Homo sapiens)” had an MIC with E. coli DH5α of 50 µg/mL. In the experiment with E. coli BL21 (setting [1]), the “MIC against E. coli BL21” value came out at 25 µg/mL. The “MIC against P. aeruginosa” value with Pseudomonas aeruginosa (setting [1]) was 12.5 µg/mL. Also, in the experiment on Klebsiella pneumonia (setting [1]), the “MIC against K. pneumonia” value amounted to 25 µg/mL. For the same substance, in the experiment on Enterobacter cloacae (setting [1]), the “MIC against E. cloacae” value is 50 µg/mL. In addition, the “MIC against A. hydrophila” value with Aeromonas hydrophila (setting [1]) worked out at 12.5 µg/mL. For the same substance, the “MIC against C. diversus” value with Citrobacter diversus (setting [1]) stood at 50 µg/mL. Also, the “MIC against M. catarrhalis” value against Moraxella catarrhalis (setting [1]) turned out to be 12.5 µg/mL. The “MIC against P. mirabilis” value in the experiment on Proteus mirabilis (setting [1]) turned out to be 50 µg/mL. Moreover, in the experiment with Proteus vulgaris (setting [1]), the “MIC against P. vulgaris” value turned out to be 12.5 µg/mL. The “MIC against S. marcescens” value with Serratia marcescens (setting [1]) was found to be 50 µg/mL.
Substance “PRT672 (DIDECMLFGSEICKEGKCVNTQPGYECYCKQGFYYDGNLLECV; listed as Homo sapiens)” returned an MIC in the experiment on E. coli DH5α of 12.5 µg/mL. Besides, in the experiment with E. coli BL21 (setting [1]), the “MIC E. coli BL21” value was determined as 25 µg/mL. For the same substance, the “MIC P. aeruginosa” value in the experiment with Pseudomonas aeruginosa (setting [1]) was found to be 12.5 µg/mL. In addition, the “MIC K. pneumonia” value with Klebsiella pneumonia (setting [1]) is 25 µg/mL. Further, the “MIC E. cloacae” value against Enterobacter cloacae (setting [1]) stood at 12.5 µg/mL. Also, the “MIC A. hydrophila” value in the experiment with Aeromonas hydrophila (setting [1]) amounted to 12.5 µg/mL. In addition, the “MIC C. diversus” value with Citrobacter diversus (setting [1]) came to 25 µg/mL. The “MIC M. catarrhalis” value in the experiment on Moraxella catarrhalis (setting [1]) was found to be 12.5 µg/mL. Moreover, in the experiment on Proteus mirabilis (setting [1]), the “MIC P. mirabilis” value was determined as 25 µg/mL. The “MIC P. vulgaris” value against Proteus vulgaris (setting [1]) is 50 µg/mL. Besides, in the experiment with Serratia marcescens (setting [1]), the “MIC S. marcescens” value is 12.5 µg/mL.
In the experiment with E. coli DH5α, “PRT488 (DRCQLQTRCQNGGQWDGLKCQCPSTFYGSSCE; listed as Homo sapiens)” gave an MIC of 50 µg/mL. Besides, the “MIC against E. coli BL21” value in the experiment with E. coli BL21 (setting [1]) came to 12.5 µg/mL. Further, the “MIC against P. aeruginosa” value in the experiment on Pseudomonas aeruginosa (setting [1]) was 50 µg/mL. Besides, in the experiment on Klebsiella pneumonia (setting [1]), the “MIC against K. pneumonia” value worked out at 12.5 µg/mL. For the same substance, the “MIC against E. cloacae” value in the experiment on Enterobacter cloacae (setting [1]) came to 50 µg/mL. In the experiment with Aeromonas hydrophila (setting [1]), the “MIC against A. hydrophila” value was 12.5 µg/mL. In addition, the “MIC against C. diversus” value with Citrobacter diversus (setting [1]) was found to be 50 µg/mL. In the experiment on Moraxella catarrhalis (setting [1]), the “MIC against M. catarrhalis” value was 12.5 µg/mL. In addition, in the experiment with Proteus mirabilis (setting [1]), the “MIC against P. mirabilis” value was 50 µg/mL. In addition, in the experiment on Proteus vulgaris (setting [1]), the “MIC against P. vulgaris” value amounted to 12.5 µg/mL. Also, in the experiment on Serratia marcescens (setting [1]), the “MIC against S. marcescens” value was 50 µg/mL.
Take “PRT507 (CICYGHARACPLDPATNKSRCECEHNTCGDSCDQCCPGFHQKPWRAGTFLTKTECEA; listed as Homo sapiens)”: in the experiment with E. coli DH5α, the MIC is 12.5 µg/mL. Also, the “MIC against E. coli BL21” value against E. coli BL21 (setting [1]) came to 50 µg/mL. Besides, the “MIC against P. aeruginosa” value in the experiment on Pseudomonas aeruginosa (setting [1]) is 12.5 µg/mL. In addition, in the experiment with Klebsiella pneumonia (setting [1]), the “MIC against K. pneumonia” value was determined as 50 µg/mL. The “MIC against E. cloacae” value with Enterobacter cloacae (setting [1]) was 12.5 µg/mL. Besides, in the experiment on Aeromonas hydrophila (setting [1]), the “MIC against A. hydrophila” value stood at 50 µg/mL. Besides, the “MIC against C. diversus” value with Citrobacter diversus (setting [1]) was determined as 12.5 µg/mL. Also, the “MIC against M. catarrhalis” value in the experiment with Moraxella catarrhalis (setting [1]) turned out to be 50 µg/mL. Further, in the experiment with Proteus mirabilis (setting [1]), the “MIC against P. mirabilis” value amounted to 12.5 µg/mL. Further, the “MIC against P. vulgaris” value against Proteus vulgaris (setting [1]) stood at 50 µg/mL. Further, the “MIC against S. marcescens” value with Serratia marcescens (setting [1]) turned out to be 25 µg/mL.
On to “PRT984 (SNASCAAAPCLHGGSCRPAPLAPFFRCACAQGWTGPRCE; listed as Homo sapiens)”, for which the MIC was 50 µg/mL against E. coli DH5α; 12.5 µg/mL with E. coli BL21; 25 µg/mL against Pseudomonas aeruginosa; 50 µg/mL with Klebsiella pneumonia; 25 µg/mL in the experiment on Enterobacter cloacae; 12.5 µg/mL with Aeromonas hydrophila. The MIC worked out at 12.5 µg/mL against Citrobacter diversus; 12.5 µg/mL against Moraxella catarrhalis; 50 µg/mL in the experiment with Proteus mirabilis; 25 µg/mL in the experiment on Proteus vulgaris; 12.5 µg/mL against Serratia marcescens.
For the substance “PRT1011 (RAPSCGFHHCHHGGLCLPSPKPGFPPRCACLSGYGGPDCL; listed as Homo sapiens)”, the MIC against E. coli DH5α stood at 12.5 µg/mL; against E. coli BL21 it was 50 µg/mL; against Pseudomonas aeruginosa it was 12.5 µg/mL; with Klebsiella pneumonia it was 50 µg/mL; against Enterobacter cloacae, 12.5 µg/mL; against Aeromonas hydrophila it was 50 µg/mL. The MIC with Citrobacter diversus turned out to be 25 µg/mL; in the experiment with Moraxella catarrhalis, 12.5 µg/mL; against Proteus mirabilis, 25 µg/mL; against Proteus vulgaris it was 50 µg/mL; in the experiment on Serratia marcescens it was 25 µg/mL.
